Data on six compounds can be found in patent publication US11203577B2, “Sulfonyl-structure-containing triazinone derivatives, their preparation methods and their uses in insect killing and/or bacterium killing” (Nankai University, priority 2017, dated 2021).

In data set [1] the test system is Cucumber fusarium wilt. The data set is described as follows: In vitro fungicidal activity, PDA colony diameter. The data set is classed as cell-based. The following applies: 96 h, 50 mg/kg, inhibition of colony diameter, read-out: Fungicidal activity (%) Cucumber fusarium wilt.
The subject of data set [2] is Cercospora brown spot of peanut. The data set is described as follows: In vitro fungicidal activity, PDA colony diameter. It counts as cell-based. To be noted: 96 h, 50 mg/kg, inhibition of colony diameter, read-out: Fungicidal activity (%) Cercospora brown spot of peanut.
The test system of data set [3] is Tomato early blight. In words: In vitro fungicidal activity, PDA colony diameter. It counts as cell-based, Alternaria solani. The following applies: 50 mg/kg, inhibition of colony diameter; read-out: Fungicidal activity (%) Tomato early blight.
The subject of data set [4] is Wheat head blight. In words: whole plant or invertebrate. The data set is classed as cell-based. The following applies: Triticum aestivum, read-out: Fungicidal activity (%) Wheat head blight.
Data set [5] concerns Rice bakanae disease. In words: In vitro fungicidal activity, PDA colony diameter. The data set is classed as cell-based. The following applies: 50 mg/kg, inhibition of colony diameter; read-out: Fungicidal activity (%) Rice bakanae disease.
Data set [6] deals with Sclerotinia rot of colza. The data set is described as follows: In vitro fungicidal activity, PDA colony diameter. The following applies: 96 h, 50 mg/kg, inhibition of colony diameter, read-out: Fungicidal activity (%) Sclerotinia rot of colza. The data set is classed as cell-based.
Data set [7] has as its system Apple ring rot. The data set is described as follows: In vitro fungicidal activity, PDA colony diameter. It counts as cell-based. To be noted: inhibition of colony diameter. Put shortly: (§1)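 Percent growth inhibition derived from colony diameter versus compound-free PDA control after 4 days' culture. Plates contained compound at 50 mg/kg; inoculum was a plug taken from the periphery of a 7-day PDA culture.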

Data set [8] relates to Capsicum phytophthora blight. In words: In vitro fungicidal activity, PDA colony diameter. The data set is classed as cell-based. The following applies: 96 h. Put shortly:
as §1

For data set [9], the system named is Wheat sheath blight. The data set is described as follows: In vitro fungicidal activity, PDA colony diameter. The following applies: 50 mg/kg, inhibition of colony diameter; read-out: Fungicidal activity (%) Wheat sheath blight. The data set is classed as cell-based.
Data set [10] deals with Corn southern leaf blight. In words: In vitro fungicidal activity, PDA colony diameter. The data set is classed as cell-based. To be noted: 50 mg/kg, inhibition of colony diameter; read-out: Fungicidal activity (%) Corn southern leaf blight.
The test system of data set [11] is Watermelon anthracnose. The data set is described as follows: In vitro fungicidal activity, PDA colony diameter. It counts as cell-based. The following applies: 50 mg/kg, inhibition of colony diameter; read-out: Fungicidal activity (%) Watermelon anthracnose.
The subject of data set [12] is Potato late blight. In words: microbe, parasite or virus in culture. It counts as cell-based. To be noted: Phytophthora infestans, 96 h, read-out: Fungicidal activity (%) Potato late blight.
In data set [13] the test system is Rice sheath blight. The data set is described as follows: In vitro fungicidal activity, PDA colony diameter. The data set is classed as cell-based. The following applies: 50 mg/kg, inhibition of colony diameter; read-out: Fungicidal activity (%) Rice sheath blight.
The test system of data set [14] is Armyworms. In words: Test of insecticidal activity against armyworms (leaf immersion). To be noted: 600 mg/kg, 3-4 days.
Data set [15] concerns Maize borers. The data set is described as follows: Test of insecticidal activity against maize borers (leaf immersion). To be noted: read-out: Mortalities (%) Maize borers.
The test system of data set [16] is mosquito larvae (Culer pipiens pallens). In words: Test of insecticidal activity against mosquito larvae (checked after 24 h).
Experimental: Method of testing against mosquito larvae: the tested mosquito larvae are Culer pipiens pallens, a normal colony fed indoor. About 5 mg compound to be tested is weighed and loaded into a penicillin vial, 5 mL acetone (or an appropriate solvent) is added into the vial, and the vial is oscillated to dissolve the compound; thus, 1,000 ppm mother liquid is obtained. 1 mL mother liquid is weighed and added into a 100 mL beaker filled with 89 mL water, 10 mosquito larvae in the early stage of the 4th instar together with 10 mL feeding solution are poured into the beaker; thus, the concentration of the pesticide solution is 10 ppm (the pesticide solutions with other concentrations are attained by diluting the mother liquid by corresponding times). […] Water solution that contains 0.5 mL test solvent is used as a blank sample.
Data set [17] concerns bean aphides (Aphis laburni Kaltenbach). The data set is described as follows: Test of insecticidal activity against aphides (leaf immersion, checked after 96 h). To be noted: for mortality at 5 mg/kg / mortality at 10 mg/kg / mortality at 100 mg/kg / mortality at 600 mg/kg: Aphis, 96 h, read-out: Mortalities (%) against aphides; for insecticidal activity against aphides compared with pymetrozine: 5 mg/kg.

Data set [18] deals with Cotton bollworms. The data set is described as follows: Test of insecticidal activity against cotton bollworms (pesticide mixed into feedstuff). To be noted: read-out: Mortalities (%) Cotton bollworms.
Experimental: Method of testing against cotton bollworms: the pesticide is mixed into the feedstuff, i.e., 3 mL prepared solution is added into about 27 g freshly prepared feedstuff; thus, required concentration is obtained by diluting by 10 times.
Setting [19] is: 24 h, read-out: Mortalities (%) against mosquito larvae.

Molecules are shown by their SMILES.

`CC(=O)Nc1ccc(S(=O)(=O)NN2CC(C)=NNC2=O)cc1` [Ia-24, N-(4-(N-(6-methyl-3-oxo-2,3-dihydro-1,2,4-triazin-4(5H)-yl)sulfamyl)phenyl)acetamide]: the inhibition of growth at 50 mg/kg in [1] turned out to be 0%; in data set [2], 15.8%; in data set [6] it was 40%; in data set [8], 24.5%; in data set [12], 22.2%. For the same compound, the inhibition at 50 mg/kg was 23.8% in data set [3]; 6.7% in [4]; 27.8% in [5]; 13.8% in data set [7]; 52.3% in data set [9]; 25% in [10]. The inhibition at 50 mg/kg in [11] was determined as 12.5%; in [13], 50.8%. The “Mortalities (%) Armyworms” value in data set [14] worked out at 5%. Further, the mortality at 600 mg/kg in data set [15] was determined as 5%; in data set [17], 100%; in data set [18] it was 50%. Moreover, the mortality at 5 mg/kg amounted to 45% in data set [16] (setting [19]) and 10% in data set [17]. The mortality at 10 mg/kg in data set [16] (setting [19]) came to 100%; in data set [17] it was 75%. Also, the mortality at 100 mg/kg in [17] worked out at 95%.
`CC1=NNC(=O)N(NS(=O)(=O)c2ccc(C#N)cc2)C1` [Ia-25, 4-cyano-N-(6-methyl-3-oxo-2,3-dihydro-1,2,4-triazin-4(5H)-yl)-benzenesulfonamide]: the inhibition of growth at 50 mg/kg in [1] was 8.8%; in [2], 12%; in [6], 26.3%; in data set [8], 22.2%; in data set [12], 18.7%. Moreover, the inhibition at 50 mg/kg in [3] turned out to be 16.4%; in data set [4], 5.4%; in data set [5], 17.2%; in data set [7], 4.1%; in data set [9], 14.3%; in data set [10], 0%. Moreover, the inhibition at 50 mg/kg in data set [11] came out at 24.6%; in data set [13], 13.9%. The “Mortalities (%) Armyworms” value in [14] came out at 10%. In addition, the mortality at 600 mg/kg in data set [15] stood at 25%; in data set [17], 100%; in data set [18], 35%. Also, the mortality at 2 mg/kg in data set [16] (setting [19]) was 40%. The mortality at 5 mg/kg in data set [16] (setting [19]) was 100%; in data set [17], 20%. Moreover, the mortality at 10 mg/kg stood at 100% in [16] (setting [19]) and 85% in data set [17]. The “insecticidal activity against aphides compared with pymetrozine” value in data set [17] is reported as “equivalent to the insecticidal activity of pymetrozine”. The mortality at 100 mg/kg in data set [17] came to 100%.
Consider `CC1=NNC(=O)N(NS(=O)(=O)c2ccc(C(F)(F)F)cc2)C1` [Ia-26, N-(6-methyl-3-oxo-2,3-dihydro-1,2,4-triazin-4(5H)-yl)-4-(trifluoromethyl)-benzenesulfonamide], for which the inhibition of growth at 50 mg/kg in data set [1] is 2.9%; in [2], 12%; in data set [6], 15.8%; in data set [8], 27.8%; in data set [12], 34.3%. The inhibition at 50 mg/kg in [3] was determined as 13.4%; in data set [4], 13.5%; in data set [5], 17.2%; in data set [7], 23%; in data set [9] it was 0%; in data set [10] it was 6.3%. For the same compound, the results for the inhibition at 50 mg/kg in [11] and in data set [13] were 34.4% and 20.9%, respectively. Further, the “Mortalities (%) Armyworms” value in [14] came to 45%. The figures for the mortality at 600 mg/kg in [15], in data set [17] and in [18] were 40%, 100% and 0%, respectively. In data set [16] (setting [19]), the mortality at 1 mg/kg turned out to be 20%. Besides, the mortality at 2 mg/kg in [16] (setting [19]) amounted to 100%. The mortality at 5 mg/kg in [16] (setting [19]) was 100%; in data set [17] it was 30%. For the same compound, the mortality at 10 mg/kg in data set [16] (setting [19]) and in data set [17] was 100% throughout. For the same compound, the “insecticidal activity against mosquito larvae” value in [16] (in vivo) is “relatively high insecticidal activity”. In addition, in data set [17], the “insecticidal activity against aphides compared with pymetrozine” value is recorded as “equivalent to the insecticidal activity of pymetrozine”. Moreover, the mortality at 100 mg/kg in data set [17] was found to be 100%.
As for `CC1=NNC(=O)N(NS(=O)(=O)c2ccc(OC(F)(F)F)cc2)C1` [Ia-27, N-(6-methyl-3-oxo-2,3-dihydro-1,2,4-triazin-4(5H)-yl)-4-(trifluoromethoxy)-benzenesulfonamide], the inhibition of growth at 50 mg/kg stood at 0% in data set [1]; 12% in [2]; 15.8% in data set [6]; 27.8% in data set [8]; 28.1% in data set [12]. Also, the inhibition at 50 mg/kg in [3] is 16.4%; in data set [4], 16.2%; in data set [5] it was 17.2%; in data set [7], 24.3%; in data set [9], 4.3%; in [10], 15.6%. Besides, the inhibition at 50 mg/kg in data set [11] came to 16.4%; in data set [13], 17.4%. Besides, in data set [14], the “Mortalities (%) Armyworms” value was determined as 5%. For the same compound, the mortality at 600 mg/kg came out at 15% in [15], 100% in data set [17] and 25% in data set [18]. Also, the mortality at 2 mg/kg in [16] (setting [19]) worked out at 20%. Besides, the results for the mortality at 5 mg/kg in data set [16] (setting [19]) and in [17] were 90% and 35%, respectively. Besides, the mortality at 10 mg/kg in [16] (setting [19]) and in data set [17] was 100% in each case. Further, the “insecticidal activity against aphides compared with pymetrozine” value in data set [17] was “equivalent to the insecticidal activity of pymetrozine”. The mortality at 100 mg/kg in [17] came to 100%.
`CC1=NNC(=O)N(NS(=O)(=O)c2cccs2)C1` [Ia-28, N-(6-methyl-3-oxo-2,3-dihydro-1,2,4-triazin-4(5H)-yl)-thienyl-2-sulfonamide]: the inhibition of growth at 50 mg/kg in data set [1] came to 0%; in data set [2], 12%; in data set [6], 15.8%; in data set [8], 25%; in [12], 0%. For the same compound, the inhibition at 50 mg/kg in data set [3] stood at 23.9%; in data set [4] it was 8.1%; in [5], 17.2%; in data set [7], 0%; in data set [9] it was 8.7%; in data set [10], 18.7%. Besides, the inhibition at 50 mg/kg was 0% in data set [11] and 17.4% in [13]. Moreover, the “Mortalities (%) Armyworms” value in data set [14] was found to be 5%. The mortality at 600 mg/kg in data set [15] came to 5%; in [17], 100%; in data set [18], 10%. For the same compound, the mortality at 5 mg/kg in data set [16] (setting [19]) stood at 20%. Moreover, the mortality at 10 mg/kg in [16] (setting [19]) was 100%; in data set [17], 65%. The mortality at 100 mg/kg in [17] turned out to be 100%.
Regarding `CC1=NNC(=O)N(NS(=O)(=O)c2ccsc2)C1` [Ia-29, N-(6-methyl-3-oxo-2,3-dihydro-1,2,4-triazin-4(5H)-yl)-thienyl-3-sulfonamide], the inhibition of growth at 50 mg/kg was found to be 12.8% in data set [1]; 19.2% in [2]; 12.5% in [6]; 23.1% in data set [8]; 23.8% in data set [12]. Also, the inhibition at 50 mg/kg in [3] is 25%; in data set [4] it was 21.2%; in data set [5] it was 3.7%; in data set [7], 52.4%; in data set [9] it was 20.8%; in data set [10], 13.9%. For the same compound, the inhibition at 50 mg/kg in [11] is 18.8%; in [13], 35.7%. Further, the “Mortalities (%) Armyworms” value in data set [14] was found to be 10%. For the same compound, the mortality at 600 mg/kg amounted to 15% in data set [15], 95% in [17] and 20% in data set [18]. Besides, the mortality at 10 mg/kg worked out at 35% in data set [16] (setting [19]) and 30% in data set [17]. Further, in [17], the mortality at 100 mg/kg stood at 85%.
